{"source": "patent US20230187019A1", "about": "“METHOD FOR DETERMINING A DRUG COMBINATION VIA A BLOCKING MODEL OF A MULTI-SITE-TARGETED PROTEIN AND APPLICATIONS THEREOF” (National Tsing Hua University, priority 2021, published 2023)", "key": {"LC3B-II": {"tested_on": "LC3B-II", "assay": "Western blotting of LC3B-II in AK4.4 and AsPC-1 cells", "format": "cell-based", "settings": "AK4.4 and AsPC-1, western blotting", "description": "Cells were seeded in a 12-well plate (10^5 cells/well) and cultured in serum-free medium (SFM) with different concentrations of drugs for six hours. The plate was then washed with phosphate-buffered saline (PBS), and cells were lysed with 100 μL radioimmunoprecipitation assay buffer (RIPA buffer) for each well. The cell extracts were mixed with 4×dye (900 μL of 4×Laemmli sample buffer+100 μL of 2-mercaptoethanol) at 95° C. for ten minutes and separated by sodium dodecyl sulfate-polyacrylamide gel electrophoresis (SDS-PAGE). The fractions were then transferred to a polyvinylidene fluoride (PVDF) membrane and immersed in 5% nonfat milk at room temperature for one hour. Afterward, the transfer membrane was incubated with protein-specific primary antibodies at 4° C. overnight, washed by PBST (0.1% Tween 20 in PBS), and then incubated with horseradish peroxidase (HRP)-conjugated secondary antibodies at room temperature for one hour. The blots washed by PBST were then detected by enhanced chemiluminescence (ECL) for the quantification of proteins."}, "[1]": {"tested_on": "AK4.4 pancreatic ductal adenocarcinoma (PDAC) xenograft"}, "ATG4B": {"biological_target": "ATG4B (Homo sapiens, UniProt Q9Y4P1)", "sequence (Q9Y4P1 whole entry)": "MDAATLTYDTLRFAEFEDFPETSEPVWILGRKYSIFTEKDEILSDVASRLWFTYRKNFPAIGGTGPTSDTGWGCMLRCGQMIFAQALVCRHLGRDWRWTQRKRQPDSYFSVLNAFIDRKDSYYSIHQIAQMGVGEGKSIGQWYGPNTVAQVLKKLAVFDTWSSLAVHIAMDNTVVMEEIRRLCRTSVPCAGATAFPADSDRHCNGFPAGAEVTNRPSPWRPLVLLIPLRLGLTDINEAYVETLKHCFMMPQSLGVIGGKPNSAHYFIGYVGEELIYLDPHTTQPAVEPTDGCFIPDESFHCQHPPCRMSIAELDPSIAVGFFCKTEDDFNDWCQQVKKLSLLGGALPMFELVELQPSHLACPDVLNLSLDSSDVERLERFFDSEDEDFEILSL", "assay": "In vitro cleavage assay of ATG4B catalytic activity (western blot of tagged LC3B)", "format": "biochemical", "experimental": "The reagents were incubated at 37° C. for 30 minutes and then subjected to western blotting. The intensity of the band in the gel was calculated by using Image Studio Lite from LI-COR Biosciences or ImageJ.\nThe full-length LC3B fusion protein was used as the negative control and as the positive control when also incubated with ATG4B (FIG. 22A). […] A peptide that can inhibit ATG4B activity will weaken the fluorescence signal produced by the cleaved PLA2."}, "shCtrl/HCT116": {"tested_on": "shCtrl/HCT116", "assay": "Cell viability assay on shCtrl/HCT116 (control strain)", "format": "cell-based, human", "settings": "HCT116 (FIG. 13A, shCtrl/HCT116)"}, "shATG4B/HCT116": {"tested_on": "shATG4B/HCT116", "assay": "Cell viability assay on shATG4B/HCT116 (ATG4B silencing strain)", "format": "cell-based, human"}, "AsPC-1": {"tested_on": "AsPC-1", "assay": "Cell viability assay (MTT) on AsPC-1", "experimental": "(§1) The cell viability was measured using the MTT assay or CellTiter-Glo Luminescent Cell Viability Assay. For MTT assay, mouse AK4.4 (1,000 cells/well) and human AsPC-1 (1,500 cells/well) cells were seeded in 96-well plates and cultured in serum-free medium (SFM) containing indicated concentrations of drugs for 48 hours. To measure the cell viability, 15 μL MTT (3-(4,5-dimethylthiazol-2-yl)-2,5-diphenyltetrazolium bromide, 5 mg/mL in PBS) was added in each well and kept at 37° C. for three hours. The precipitated crystals were then dissolved in 50 μL DMSO, and the absorbance at 570 nm was measured by Multiskan GO Microplate Spectrophotometer (Thermo Scientific, USA) to estimate the cell survival rate. To quantify the drug combination effect, the combination index was calculated when the cell viability was reduced by 50% using the following Equation (1):"}, "AK4.4": {"tested_on": "AK4.4", "assay": "Cell viability assay (MTT) on AK4.4", "settings": "for pIC50: Mus musculus", "experimental": "as §1"}, "MDA-MB-468": {"tested_on": "MDA-MB-468", "assay": "Cell viability assay by WST-1 on MDA-MB-468", "format": "cell-based, human", "settings": "10 μM, two days, breast MDA-MB-468", "description": "Three tumor cells were tested, i.e., HCT116 (colorectal cancer), AsPC-1 (pancreatic cancer) and MDA-MB-468 cell lines (breast cancer). Human colorectal carcinoma cell line HCT116 (catalog number: BCRC 60349, Bioresource Collection and Research Center (BCRC), Hsinchu City, Taiwan) was maintained in the culture medium: McCoy's 5a medium (catalog number: 16-600-082, Gibco, Waltham, Mass.) with 1.5 mM L-glutamine (Gibco) and 10% fetal bovine serum (FBS, Gibco). Human pancreatic adenocarcinoma cell line AsPC-1 (catalog number: BCRC 60494, BCRC) was maintained in the culture medium: RPMI 1640 medium (catalog number: 11875168, Gibco) with 2 mM L-glutamine, 4.5 g/L glucose (Gibco), 10 mM HEPES (Gibco), 1 mM sodium pyruvate (Gibco) and 10% fetal bovine serum. […]\nFor cell viability assay, tumor cells (1×10^5/mL) were suspended in the medium without testing drugs and then inoculated in 96-well plates (100 μL per well) for attachment first. […] Cell proliferation was quantified by using a Premix WST-1 Cell Proliferation Assay System (Takara, Japan). According to the manufacturer's protocol, cell proliferation was determined by measuring the optical density (OD) after the reaction for 3 hours by recording the absorbance at 450 nm using a plate reader (Multiskan Go, Thermo Fisher Scientific)."}, "3CL^pro": {"biological_target": "T1, 3CL^pro (Severe acute respiratory syndrome coronavirus 2, UniProt P0DTD1)", "T1 construct": "A 3CL^pro (Cat. #78042-1) assay kit (BPS Bioscience, CA, USA); purchased BPS Bioscience 78042-1", "assay": "FRET-based 3CL^pro enzyme activity assay", "format": "biochemical", "settings": "single use, 3 to 90 μM", "experimental": "The intensity of this fluorescence is proportional to the protease activity.\nInhibition percentage is calculated by “1−(Itest−Isubstrate)/(Ipositive−Isubstrate),” where I represents the value of inhibition ability.\nThe FRET (fluorescence resonance energy transfer)-based assay was designed for 3CL^pro activity assay and explained in FIG. 10. The 3CL^pro enzyme assay was developed in a 96-well black microplate with a total volume of 50 μL. 30 μL of 0.5 ng/μL enzyme in a reaction buffer was added into each well, followed by the addition of 10 μL substrate solution to a final concentration of 40 μM."}, "[2]": {"settings": "Vb concentration for 50% reduction of viability in combination with 0.50 μM Mx"}}, "note": "pIC50: −log10 of the molar value. “And” between values parts separate entries of the source, which are not always exact repeats. Identical values can stand only once. Like-named read-outs stand apart in the source and are kept apart here."}
{"smiles": "CCC1=C[C@@H]2CN(C1)Cc1c([nH]c3ccccc13)[C@@](C(=O)OC)(c1cc3c(cc1OC)N(C)[C@H]1[C@@](O)(C(=O)OC)[C@H](OC(C)=O)[C@]4(CC)C=CCN5CC[C@]31[C@@H]54)C2", "note": "[Vinorelbine]", "values": [{"measurement": "abundance of LC3B-II in cells", "setting": "LC3B-II", "value": "accumulation of LC3B-II"}, {"measurement": "tumor size compared to the control group", "setting": "[1]; 20 mg/kg, day 16", "value": 70, "unit": "%"}, {"measurement": "tumor size measured on day 16 versus control group", "setting": "[1]; dose of 10 mg/kg, days 3, 5, 7, 10, 12, 14", "value": "less than half of the tumor size in the control group"}, {"measurement": "reduction of the ATG4B activity on LC3B catalysis", "setting": "ATG4B; 10 μM vinorelbine, FIG. 4B", "value": 42, "unit": "%"}, {"measurement": "inhibition at 10 µM", "setting": "ATG4B; read-out: inhibition of ATG4B catalysis", "value": 58, "unit": "%"}, {"measurement": "reduced cell viability", "setting": "shCtrl/HCT116; 4 μM", "value": 55, "unit": "%"}, {"measurement": "reduced cell viability", "setting": "shCtrl/HCT116; 10 μM", "value": 63, "unit": "%"}, {"measurement": "reduced cell viability", "setting": "shCtrl/HCT116; 20 μM", "value": 68, "unit": "%"}, {"measurement": "reduced cell viability", "setting": "shATG4B/HCT116", "value": "37% and 43% and 54%"}, {"measurement": "reduced cell viability", "setting": "AsPC-1; AsPC-1, 5 μM", "value": 68, "unit": "%"}, {"measurement": "reduced cell viability", "setting": "AsPC-1; AsPC-1, 10 μM", "value": 61, "unit": "%"}, {"measurement": "reduced cell viability", "setting": "AsPC-1; AsPC-1, 20 μM", "value": 46, "unit": "%"}, {"measurement": "pIC50", "setting": "AsPC-1; Homo sapiens, ASPC1, read-out: IC50, Vb, vinorelbine alone, AsPC-1 (Table 9)", "value": 4.76}, {"measurement": "pIC50", "setting": "AsPC-1; Homo sapiens, ASPC1, read-out: IC50, Vb, vinorelbine alone, AsPC-1 (Table 15)", "value": 4.48}, {"measurement": "viability at 5 µM", "setting": "AsPC-1; Homo sapiens, ASPC1, read-out: cell viability, AsPC-1, 5 μM vinorelbine alone", "value": 68, "unit": "%"}, {"measurement": "viability at 10 µM", "setting": "AsPC-1; Homo sapiens, ASPC1, read-out: cell viability, AsPC-1, 10 μM vinorelbine alone", "value": 61, "unit": "%"}, {"measurement": "viability at 20 µM", "setting": "AsPC-1; Homo sapiens, ASPC1, read-out: cell viability, AsPC-1, 20 μM vinorelbine alone", "value": 46, "unit": "%"}, {"measurement": "CVb, 50", "setting": "AsPC-1; [2]", "value": 18.94, "unit": "µM"}, {"measurement": "CVb, 50", "setting": "AsPC-1; Vb concentration for 50% reduction of viability in combination with 1.00 μM Mx", "value": 9.05, "unit": "µM"}, {"measurement": "reduced cell viability", "setting": "AK4.4; AK4.4, 5 μM", "value": 62, "unit": "%"}, {"measurement": "reduced cell viability", "setting": "AK4.4; AK4.4, 10 μM", "value": 51, "unit": "%"}, {"measurement": "reduced cell viability", "setting": "AK4.4; AK4.4, 20 μM", "value": 24, "unit": "%"}, {"measurement": "pIC50", "setting": "AK4.4; read-out: IC50, Vb, vinorelbine alone, AK4.4 (Table 8)", "value": 4.98}, {"measurement": "pIC50", "setting": "AK4.4; read-out: IC50, Vb, vinorelbine alone, AK4.4 (Table 14)", "value": 5.14}, {"measurement": "CVb, 50", "setting": "AK4.4; [2]", "value": 3.91, "unit": "µM"}]}
{"smiles": "CC1=C(/C=C/C(C)=C/C=C/C(C)=C/C(=O)Nc2ccc(O)cc2)C(C)(C)CCC1", "note": "[Fenretinide]", "values": [{"measurement": "suppression of tumor cell growth", "setting": "MDA-MB-468", "value": "seems to be a better breast cancer inhibitor"}]}
{"smiles": "CC(C)C[C@@H](N)C(=O)N[C@H]1C(=O)N[C@@H](CC(N)=O)C(=O)N[C@H]2C(=O)N[C@H]3C(=O)N[C@H](C(=O)N[C@H](C(=O)O)c4cc(O)cc(O)c4-c4cc3ccc4O)[C@H](O)c3ccc(c(Cl)c3)Oc3cc2cc(c3O[C@@H]2O[C@H](CO)[C@@H](O)[C@H](O)[C@H]2O[C@H]2C[C@](C)(N)[C@H](O)[C@H](C)O2)Oc2ccc(cc2Cl)[C@H]1O", "note": "[norvancomycin]", "values": [{"measurement": "inhibition of 3CL^pro", "setting": "3CL^pro", "value": "20 to 30", "unit": "%"}]}
